Data taken from article PMC8473062, “Stability and Safety of Inhibitor Cystine Knot Peptide, GTx1-15, from the Tarantula Spider Grammostola rosea” (Toxins, 2021).
Read-outs that look alike come from different tables or passages of the source.

What was measured:
[1] = Protein thermal shift assay; type: physicochemical; conditions: Protein Thermal Shift kit, heated 25 to 99 °C at 1 °C/min
Protocol: The protein thermal shift assay was conducted with the StepOne Real-Time PCR System (Thermo Fisher Scientific) using the Protein Thermal Shift Assay Kit according to the manufacturer’s instructions with Protein Thermal Shift Software version 1. The protein melt reaction mix was added to the wells of a 48-well PCR plate. The plate was heated from 25 to 99 °C with a heating rate of 1 °C/min. The software allows the user to calculate a melting temperature (Tm) from their melt curve data using the Boltzmann equation (Tm B).

THP-1 cells = assay: Antigenicity assay (CD80, CD86, CD54 expression by real-time PCR); conditions: positive control 4 μg/mL, 24 h exposure, RT-PCR, one range for the three genes
Protocol: THP-1 cells were cultured as described above. For antigenicity assays, 2.4 × 10^6 THP-1 cells were inoculated into single wells of a 12-well plate with 1.2 mL RPMI-1640 medium. […] As a negative control, RPMI-1640 was added. After a 24-h incubation, THP-1 cells were collected via centrifugation at 1000× g for 5 min, and then total RNA was extracted from cells using an RNeasy Mini Kit (QIAGEN, Hilden, Germany) according to the manufacturer’s instructions. Total RNA was treated with DNase (QIAGEN) for 10 min to digest contaminating genomic DNA and purified by an RNeasy MinElute Cleanup Kit (QIAGEN). Complementary DNA was synthesized with PrimeScript Reverse Transcriptase (Takara Bio) with an oligo (dT)12-18 primer (Invitrogen, Waltham, USA), 10 mM each dNTP mixture (Promega, Madison, USA), and RNase Inhibitor (Takara Bio). Real-time PCR mixtures were prepared with SYBR Premix Ex Taq (Takara Bio) according to the manufacturer’s instructions. […] Primers for real-time PCR were designed using Roche ProbeFinder version 2.45 (http://qpcr.probefinder.com/roche3.html. This site is stopped at the end of 2020).

[2] = cited from earlier work; for degradation after thermal incubation: 24 h
Protocol: Cyclotides are cystine-knotted peptides in which the N- and C-termini are cyclized. Kalata B1 is a well-known cyclotide that consists of 29 amino acids and is not degraded after heating to temperatures approaching boiling. The insecticidal spider toxin ω-hexatoxin-Hv1a is an ICK peptide whose thermal stability has been investigated. After incubating it for 24 h at 50 °C, 75 °C or 95 °C, ω-hexatoxin-Hv1a is degraded about 20%, 30% and 90%, respectively. In contrast, GTx1-15 degraded only 30% after a 24-h incubation at 95 °C.

[3] = cited from earlier work
Protocol: We previously reported that ProTxII (an ICK peptide) remains in circulation for over 4 h. Similar to those results, GTx1-15 retains an effective concentration in circulation for over several hours.

## GsMTx4
[1]
  Tm B (Boltzmann melting temperature): 95.26 ± 0.10 °C

## O=[N+]([O-])c1ccc(Cl)c([N+](=O)[O-])c1 [DNCB, 2,4-Dinitrochlorobenzene]
THP-1 cells
  increase in expression of CD80, CD86 and CD54 genes: 20–70 times

## Kalata B1: well-known cyclotide of 29 amino acids; cystine-knotted peptide with N- and C-termini cyclized (cyclo(GLPVCGETCVGGTCNTPGCTCSWPVCTRN); disulfide (positions not given here); also: cystine-knotted (disulfide places not given here); UniProt P56254 89-117, looked up)
[2]; heating to temperatures approaching boiling
  degradation after heating: not degraded

## ω-hexatoxin-Hv1a
[2]; 50 °C
  degradation after thermal incubation: about 20%
[2]; 75 °C
  degradation after thermal incubation: ~30%
[2]; 95 °C
  degradation after thermal incubation: ~90%

## ProTxII: ICK peptide compared in the protein thermal shift assay
[3]
  time remaining in circulation: over 4 h
[1]
  Tm B (Boltzmann melting temperature): 93.95 ± 0.12 °C

## ProTxI: ICK peptide compared in the protein thermal shift assay (ECRYWLGGCSAGQTCCKHLVCSRRHGWCVWDGTFS; UniProt P83480 1-35, looked up)
[1]
  Tm B (Boltzmann melting temperature): 93.23 ± 0.12 °C
